Measured values published in BindingDB's records for doi:10.7270/Q2736PBV (Broad Institute, 2009).

target: T1, Streptokinase A (Streptococcus pyogenes serotype M1, UniProt P10520); experiment: viability-normalized secreted streptokinase activity reduction – plasminogen activation absorbance, OD405, dose response (AID 1914)
T1 sequence (P10520 whole entry): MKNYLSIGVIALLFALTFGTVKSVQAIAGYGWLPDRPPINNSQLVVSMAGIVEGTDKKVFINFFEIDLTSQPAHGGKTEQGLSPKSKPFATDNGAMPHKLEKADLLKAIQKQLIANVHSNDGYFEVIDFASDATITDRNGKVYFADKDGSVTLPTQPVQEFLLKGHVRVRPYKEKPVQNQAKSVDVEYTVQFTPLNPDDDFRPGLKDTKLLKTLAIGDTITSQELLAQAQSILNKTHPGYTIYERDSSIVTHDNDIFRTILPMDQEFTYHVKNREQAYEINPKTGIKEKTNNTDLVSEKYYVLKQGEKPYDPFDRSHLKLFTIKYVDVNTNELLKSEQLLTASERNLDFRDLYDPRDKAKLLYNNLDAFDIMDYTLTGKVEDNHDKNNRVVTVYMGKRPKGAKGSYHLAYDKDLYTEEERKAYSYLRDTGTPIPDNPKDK

SMILES | EC50 [µM]
Cc1cc(N=NCc2ccc(O)c(C)c2O)nc(-c2ccccc2O)n1 [(4E)-3-hydroxy-2-methyl-4-[[[(2Z)-6-methyl-2-(6-oxo-1-cyclohexa-2,4-dienylidene)-1H-pyrimidin-4-yl]hydrazo]methylidene]-1-cyclohexa-2,5-dienone] | > 150
O=C1C(Br)=CC([N+](=O)[O-])=C/C1=C\NNC(=O)C12CC3CCC(CC(C3)C1)C2 [SMR000414723] | > 150
CN(C)S(=O)(=O)c1ccc(-c2csc(N=NCc3ccc(O)cc3)n2)cc1 [N,N-dimethyl-4-[2-[2-[(4-oxidanylidenecyclohexa-2,5-dien-1-ylidene)methyl]hydrazinyl]-1,3-thiazol-4-yl]benzenesulfonamide] | > 150
COC1=CC([N+](=O)[O-])=CC(/C=N/NC(=O)c2cc(-c3ccccc3)nc3ccccc23)C1=O (stereo not drawn) | > 150
Cc1sc2ncnc(N=NCc3ccccc3O)c2c1C | 8.21
Oc1cc(N(CCc2ccccc2)C(=S)Nc2ccccc2)c(O)n1-c1ccc(Br)cc1 [1-[1-(4-bromophenyl)-2,5-bis(oxidanylidene)pyrrolidin-3-yl]-3-phenyl-1-(2-phenylethyl)thiourea] | 2.67
Cc1nc(N=NCc2ccc3c(c2)OCO3)sc1C [(4,5-dimethylthiazol-2-yl)-(piperonylideneamino)amine] | > 150
COc1cc(CN=Nc2nc(Nc3ccccc3)nc(-n3nc(C)cc3C)n2)cc(OC)c1OC [6-(3,5-dimethylpyrazol-1-yl)-N4-phenyl-N2-[(3,4,5-trimethoxyphenyl)methylideneamino]-1,3,5-triazine-2,4-diamine] | > 150
CN(C)c1ccc(CN=Nc2nc3ccccc3o2)cc1 | > 150
N=C(N)C1=CC(=O)/C(=C/C=c2ccc(=C(N)N)cc2)C=C1 [(4E)-4-[2-[4-[bis(azanyl)methylidene]cyclohexa-2,5-dien-1-ylidene]ethylidene]-3-oxidanylidene-cyclohexa-1,5-diene-1-carboximidamide;2-oxidanylethanesulfonic acid] | 20
CC(NNC(=O)c1ccccc1O)=C1C(=O)c2ccccc2C1=O [MLS000523164] | > 150
CSc1cccc(-c2nnc(NC(=O)c3cccc(-n4c(O)ccc4O)c3)o2)c1 [SMR000811880] | > 150
CC(C)CN1C(=O)/C(=N\NC(=O)c2cccc(S(=O)(=O)N3CCCCC3)c2)c2ccccc21 [MLS000417389] | > 150
COc1ccc(NC(=S)NNC2=c3ccccc3=NC2=O)cc1 [SMR000413743] | > 150
Cc1nn(-c2ccccc2)c(Cl)c1C1C2=C(CCCC2=O)OC(=N)C1C#N (stereo not drawn) [2-azanyl-4-(5-chloranyl-3-methyl-1-phenyl-pyrazol-4-yl)-5-oxidanylidene-4,6,7,8-tetrahydrochromene-3-carbonitrile] | > 150
O=C1C2=C3C(=C/C1=C\NNC(=O)c1ccccc1O)CCCN3CCC2 [MLS000332414] | > 150
CN(C)CCN=CC(C(=O)Nc1ccc(Cl)cc1Cl)C(=O)Nc1ccc(Cl)cc1Cl [N~1~,N~3~-bis(2,4-dichlorophenyl)-2-({[2-(dimethylamino)ethyl]amino}methylene)malonamide] | > 150
CCCCCCC1=Cc2c/c(=C3/NN=C(c4ccccc4)O3)c(=O)oc2=CC1=O [MLS000068623] | > 150
CCc1ccc2nc(N3C(=O)C(=O)C(C(=O)c4ccco4)C3c3cccs3)sc2c1 (stereo not drawn) [1-(6-ethyl-1,3-benzothiazol-2-yl)-3-(furan-2-ylcarbonyl)-4-oxidanyl-2-thiophen-2-yl-2H-pyrrol-5-one] | > 150
Fc1ccc(Br)cc1C1CC(c2ccc(Br)s2)=Nc2ncnn21 (stereo not drawn) [SMR000032932] | > 150
CC(C)C(N=Nc1ccccc1[N+](=O)[O-])c1ccccc1 (stereo not drawn) [MLS000712651] | 18.4
CC(N=Nc1nc(N2CCCCCC2)nc(N2CCCCCC2)n1)c1ccccc1 (stereo not drawn) [(1E)-1-phenylethanone (4,6-diazepan-1-yl-1,3,5-triazin-2-yl)hydrazone] | 5.5
Cc1cc(C)c(N=Nc2c(C)[nH]n(C(N)=S)c2=O)c(C)c1 | > 150
C=CCn1c(-n2c(O)cc(Cc3ccccc3)c2O)nc2ccccc21 | > 150
O=C1C([N+](=O)[O-])=CC(Cl)=CC1CN=Nc1nc2ccccc2s1 (stereo not drawn) | > 150
Cc1cc(C)nc(N=NCc2cc(Br)ccc2O)n1 | > 150
Oc1ccc(Br)cc1CN=Nc1nc(N2CCCCC2)nc(N2CCOCC2)n1 [MLS000713264] | 33.6
CCCCCCC(N=O)c1ccccn1 (stereo not drawn) | > 150
